Patent US8193224B2, “Medicinal composition for prevention or treatment of parasitic protozoan infection” (Fujifilm Corporation, priority 2004, dated 2012)
Where two headings read alike, the source gives them in different places.

What was measured:
Assay type in all cases: cell-based
[1] = system: Rat derived-L6 cells (rat skeletal myoblast cell); test: Growth inhibition test of rat L6 cells; conditions: 72 hours
Description: (§1) Rat derived-L6 cells (rat skeletal myoblast cell) were used. As medium, RPMI1640 medium was supplemented so that L-glutamin (200 mM) is 1%, and fetal bovine serum 10%, and the medium was cultured under CO2 concentration 5%, at 37° C. The compounds of the present invention and the target drugs to be used in the test were dissolved in DMSO, to make a test solution of a predetermined concentration. Pre-culture was conducted and medium containing cells which have entered the logarithmic growth phase was taken to wells of a 96-well culture plate. Then, a test solution containing drug of a predetermined concentration or a drug-free DMSO was added. Test solutions were taken by duplicates. Culture plate was cultured for 72 hours in an incubator, to test the growth inhibition activity. Test was conducted as follows.
(§2) 10 μl of Alamar Blue aqueous solution was added to each well, and the resultant was further cultured for 2 hours. Next, the culture plate was placed on a fluorescent micro-plate reader (Spectramax Gemeni XS; US Molecular Device), radiated at an excited wavelength of 536 nm. Fluorescent intensity was measured at 588 nm, and residual rate of L6 cells of the test solution added group, and that of the control was calculated. Based on the cell residual rate obtained in the above, growth inhibition rate to L6 cells was calculated, to obtain a 50% growth inhibition concentration (EC50). Growth inhibition rate (%)={(C−A)/(B−A)}×100 A: primary cell count B: cell count of control, 3 days after C: cell count of wells added with a sample, 3 days after […]

[2] = system: Plasmodium falciparum K1 strain; test: Chloroquine resistant-Plasmodium falciparum growth inhibition screening test; conditions: for EC50: chloroquine resistant K1 strain, 3H-hypoxanthine, 48 + 24 hours, read-out: 50% growth inhibition concentration P. falciparum K1; for Selective toxicity: chemotherapy index = EC50 rat L6 cells / EC50 chloroquine resistant P. falciparum
Description: In the present example, protozoa of Plasmodium falciparum K1 strain was used. RPMI-1640 medium sterilized with a filter to which human serum was added to be 5%, was used in the experiment. Malarial parasites were cultured under 3% O2 concentration, 4% Co2 concentration, 93% N2 concentration, and at a temperature of 37° C.
The compounds of the present invention to be used in the present test and the positive target drug (chloroquine) were dissolved in DMSO to make a test solution of a predetermined concentration. Cultured malarial parasite infected-erythrocytes were collected by centrifugation, and diluted with non-infected erythrocyte so that the early infection rate is 0.15%. Hematocrit level at that time was 2.5%. 200 μL of malaria infected solution was added to wells of a 96-well culture plate, and adjusted by adding a test solution containing drug of a predetermined concentration or a drug-free DMSO. Test solutions were taken by duplicates. After culturing for 48 hours at 37° C., 0.5 μCi radioactive tritium (3H)-labeled hypoxanthine was added to each well. After further culturing for 24 hours under the same conditions, it was collected on a glass fiber filter and washed with distilled water. Radiation intensity was measured with a beta plate liquid scintillation counter (Wallac), and malarial parasite infection rates of the test solution added group and of the control group were calculated. Growth inhibition rate was calculated with the following formula based on the malarial parasite infection rate obtained in the above, to obtain a 50% growth inhibition concentration (EC50). Growth inhibition rate (%)={1−(b−a)/(c−a)}×100 a: early infection rate b: infection rate when test solution was added c: infection rate of the control

[3] = system: Trypanosoma brucei rhodensiense (STIB 900 strain); test: African trypanosome protozoa growth inhibition screening test; conditions: read-out: 50% growth inhibiting concentration Trypanosoma brucei rhod.
Description: In the present example, protozoa of Trypanosoma brucei rhodensiense (STIB 900 strain), a trypamastigote living in blood stream, was used. The medium used in the experiment was a MEM medium which was sterilized with a filter and supplemented with 25 mM N-2-hydroxyethylpiperazine-2-ethansulfonic acid […]), 1 g/L glucose, 1% MEM non-essential amino acid, 0.2 mM 2-mercaptoethanol, 2 mM sodium pyruvate, 0.1 mM hypoxanthine, and 15% heat-treated horse serum. The protozoa was cultured in an atmosphere of CO2 concentration 5%, at a temperature of 37° C.
The compounds of the present invention to be used in the present test and the positive target drug (melarsoprol) were dissolved in DMSO to make a test solution of a predetermined concentration. A medium containing 8×10^3 protozoa, and a test solution containing a drug of a predetermined concentration or a drug-free DMSO were added to wells of a 96-well culture plate, and subsequently, medium was added so that the amount in each well becomes 100 μL. Test solutions were taken by duplicates. After culturing the culture plate for 72 hours in an incubator, growth inhibition activity was tested. Test was conducted as follows. 10 μL of Alamar Blue aqueous solution was added to each well, and the resultant was further cultured for 2 hours. Next, the culture plate was placed on a fluorescent micro-plate reader (Spectramax Gemeni XS; US Molecular Device), radiated at an excited wavelength of 536 nm. Fluorescent intensity was measured at 588 nm, to calculate the trypanosome protozoa infected rate of the test solution added-group, and of the control group. From the protozoan infection rate obtained in the above, growth inhibition rate was calculated with the following formula, to obtain a 50% growth inhibition concentration (EC50). Growth inhibition rate (%)={1−(b−a)/(c−a)}×100 a: early infection rate b: infection rate when test solution was added c: infection rate of the control

[4] = system: Trypanosoma cruzi (Tulahuen C2C4 strain); test: American trypanosome protozoa growth inhibition screening test; conditions: Tulahuen C2C4 strain in rat L6 cells, 96 hours, CPRG/Nonidet, read-out: 50% growth inhibition concentration Trypanosoma cruzi
Description: In the present example, amastigote and trypomastigote infected with rat L6 cells of protozoa of Trypanosoma cruzi (Tulahuen C2C4 strain) were used. As medium used in the test, RPMI 1640 medium containing L6 cells was supplemented so that L-glutamine (200 mM) becomes 1%, fetal bovine serum becomes 10%, which was cultured under CO2 concentration 5%, at 37° C.
The compounds of the present invention to be used in the test and the positive target agent (benznidazole) were dissolved in DMSO to make a test solution of a predetermined concentration. A medium containing 5×10^3 protozoa was added to wells of a 96-well culture plate, and pre-cultured for 48 hours. After replacing the medium, test solution containing drug of a predetermined concentration or a drug-free DMSO was added. Test solutions were taken by duplicates. After culturing the culture plate in an incubator for 96 hours, growth inhibition activity was tested. Test was conducted as follows.
50 μL of CPRG/Nonidet was added to each well, and allowed to rest for 2 to 6 hours. Next, the culture plate was placed on a fluorescent micro-plate reader, and the absorbance was measured at 540 nm. Growth inhibition rate was calculated with the following formula based on the protozoan infection rate which was obtained by calculating trypanosome infection rate of the test solution added group and control group, to obtain a 50% growth inhibition concentration (EC50). Growth inhibition rate (%)={1−(b−a)/(c−a)}×100 a: early infection rate b: infection rate when test solution was added c: infection rate of the control

[5] = system: Leishmania donovani (MHOM/ET/67/L82 strain); test: Leishmania protozoa growth inhibition screening test; conditions: MHOM/ET/67/L82 strain amastigote, pH 5.4, 72 hours, Alamar Blue, read-out: 50% growth inhibition concentration Leishmania donovani
Description: In the present example, Leishmania donovani (MHOM/ET/67/L82 strain) was used. Protozoa was subcultured in Syrian Golden hamster, from which an amastigote was obtained. In the experiment, SM medium supplemented with 10% heat-treated bovine fetal serum was used, which was adjusted to pH 5.4, and cultured in an atmosphere of 5% CO2 concentration, at 37° C.
The compounds of the present invention to be used in the present test and the positive target drug (miltefosine) were dissolved in DMSO to make a test solution of a predetermined concentration. After adding a medium containing a predetermined number of protozoa to wells of a 96-well culture plate and pre-treating, concentration of the amastigote was measured with CASY cell analysis system (Scharfe, Germany). Then, test solution containing a drug of a predetermined concentration or a drug-free DMSO was added. Test solutions were taken by duplicates. After culturing the culture plate for 72 hours in an incubator, growth inhibition activity was tested. Test was conducted as follows.
10 μL of Alamar Blue aqueous solution was added to each well, and the resultant was further cultured for 2 hours. Next, the culture plate was placed on a fluorescent micro-plate reader (Spectramax Gemeni XS; US Molecular Device), radiated at an excited wavelength of 536 nm. Fluorescent intensity was measured at 588 nm, and infection rate of leishmania protozoa of the test solution added-group and control was calculated, to obtain a 50% growth inhibition concentration (EC50). Growth inhibition rate (%)={1−(b−a)/(c−a)}×100 a: early infection rate b: infection rate when test solution was added c: infection rate of the control

[6] = system: Trypanosoma brucei rhodensiense (STIB 900 strain); test: African trypanosome protozoa growth inhibition screening test; conditions: chemotherapy index = EC50 rat L6 cells / EC50 African trypanosome protozoa
[7] = Growth inhibition test of rat L6 cells
Description: as §1, §2

[8] = Alamar Blue (Table 2), read-out: 50% growth inhibition concentration Cytotoxicity L6
[9] = Alamar Blue (Table 3), read-out: 50% growth inhibiting concentration Cytotoxicity L6
[10] = STIB 900 strain, blood stream form, 72 hours, Alamar Blue
[11] = L6 cells (rat skeletal myoblast), Alamar Blue (Table 2), read-out: 50% growth inhibition concentration Cytotoxicity L6
[12] = Trypanosoma brucei, STIB900, STIB 900 strain, blood stream form, 72 hours, Alamar Blue

Structure (SMILES)	EC50 [1, 8] [nM]	EC50 [1, 9] [nM]	EC50 [2] [nM]	EC50 [3, 10] [nM]	EC50 [5] [nM]	also measured
CCn1c(=Cc2cccc[n+]2C)sc(=CC=C2Sc3ccccc3N2C)c1=O [A-4]	76000	76000	120	410	–	–
CCn1c(=Cc2cc[n+](CC)c3ccccc23)sc(=CC=C2C=Cc3ccccc3N2C)c1=O [A-14]	9100	9100	140	41	200	EC50 [4]: 1200 nM
Nc1nc(N)nc(Nc2ccc([As]3SCC(CO)S3)cc2)n1 (centres unmarked) [melarsoprol, reference compound]	–	–	–	–	–	Selective toxicity [6]: 1300; EC50 at 72 h [7, 9]: 7800 nM; EC50 ([3]; Trypanosoma brucei, STIB900, 72 h): 6 nM
CCCCCCCCCCCCCCCCOP(=O)([O-])OCC[N+](C)(C)C [miltefosine, reference compound]	–	–	–	–	–	EC50 ([5]; Leishmania donovani): 280 nM
CCn1c(=Cc2oc3ccccc3[n+]2CC)sc(=CC=C2N(C)c3ccccc3C2(C)C)c1=O [A-8]	1800	1800	14	300	56	EC50 [4]: 990 nM
C=CCn1c(=Cc2oc3ccccc3[n+]2C)sc(=CC=C2Sc3ccccc3N2C)c1=O [A-13]	–	13000	–	110	47	EC50 ([1]; Alamar Blue (Table 5), read-out: 50% growth inhibition concentration Cytotoxicity L6): 13000 nM
CCn1c(=Cc2sc3c4ccccc4ccc3[n+]2CC)sc(=CC=C2SCCN2C)c1=O [A-9]	8100	8100	74	140	23	EC50 [4]: 4100 nM
CCn1c(=O)/c(=C/C=C2\Sc3ccccc3N2C)s/c1=C\c1cccc[n+]1CCO [A-5]	–	–	–	–	–	EC50 at 72 h [7, 11]: 42000 nM; EC50 ([2]; Plasmodium falciparum, 72 h): 270 nM; Selective toxicity [2]: 150
CCn1c(=O)/c(=C/C=C2\Sc3ccccc3N2C)s/c1=C\c1cccc[n+]1CCCCC(=O)O [A-12]	–	–	–	–	–	Selective toxicity [6]: 19; EC50 at 72 h [7, 11]: 17000 nM; EC50 ([2]; Plasmodium falciparum, 72 h): 210 nM; Selective toxicity [2]: 84; EC50 [3, 12]: 900 nM
O=C(Cn1ccnc1[N+](=O)[O-])NCc1ccccc1 [benznidazol, benznidazole, reference compound]	–	–	–	–	–	EC50 ([4]; Trypanosoma cruzi): 870 nM
CCn1c(=O)/c(=C/C=C2\Sc3ccccc3N2C)s/c1=C\c1cccc[n+]1CCOCCOCCOC [A-6]	–	–	–	–	–	Selective toxicity [6]: 340; EC50 at 72 h [7, 11]: 44000 nM; EC50 ([2]; Plasmodium falciparum, 72 h): 190 nM; Selective toxicity [2]: 236; EC50 [3, 12]: 130 nM
